From patent US20150005307A1, “Drug Delivery Technology” (LondonPharma Ltd., priority 2011, published 2015)
Structures can show the parent of a compound that is named as a salt.

Assay: Solubility of PDE5 inhibitors in formulation carriers and co-solvents
Settings: for solubility in water: result in words
Text: In the absence of ethanol an alternative preservative could be used, though methyl parabens and potassium sorbate precipitated out of solution.
Suitable sweeteners were sucralose (0.05%) and suitable flavourings were strawberry flavour 501094 (0.5%) and orange juice flavour 506304 (0.5%).
Cremophor EL (macrogol glycerol ricinoleate Ph Eur) was identified as a component that was able to maintain menthol, peppermint oil, aniseed and lemon oil in solution. These flavours were firstly mixed at 10% w/w with Cremophor EL, and the resultant combination then mixed with water (10% w/w in purified water). […] Note that vanillin also degraded in Cremophor EL, rendering it unusable. […] The action of Cremophor EL here is that of a water-miscible oil-based solvent. Sildenafil and vardenafil remained in solution at a concentration of at least 60 mg/ml and 30 mg/ml, respectively, in the presence of 10% Cremophor EL.

[1] = Miglyol 810 (medium-chain triglycerides Ph Eur), with or without ethanol

| Compound | solubility in Miglyol 810 [1] | solubility in other potential solvents e.g. PEG (PEG, even using ethanol as a co-solvent) | solubility in water (water) | solubility in Miglyol 810 | solubility (water) |
| --- | --- | --- | --- | --- | --- |
| CN1CC(=O)N2[C@H](c3ccc4c(c3)OCO4)c3[nH]c4ccccc4c3C[C@@H]2C1=O [Tadalafil (base), Tadalafil] | insoluble | insoluble | insoluble | – | – |
| CCCc1nc(C)c2c(=O)[nH]c(-c3cc(S(=O)(=O)N4CCN(CC)CC4)ccc3OCC)nn12 [Vardenafil (hydrochloride trihydrate), vardenafil hydrochloride trihydrate] | – | – | – | insoluble | ≥ 50 mg/mL |
| CCCc1nn(C)c2c(=O)[nH]c(-c3cc(S(=O)(=O)N4CCN(C)CC4)ccc3OCC)nc12 [sildenafil (base), sildenafil] | Neither sildenafil (base) nor sildenafil citrate were found to be soluble | – | Neither sildenafil (base) nor sildenafil citrate were found to be soluble | – | – |
